“And” between values parts separate entries of the source, which are not always exact repeats. Identical values can stand only once. “Also recorded” adds a separate entry of the source.
What was measured:
[1] = target: T1, OXA-48 (Klebsiella pneumoniae, UniProt Q6XEC0); experiment: Example 8 inhibition assay with nitrocefin (aromatic acids): OXA-48; assay type: biochemical; set-up: His-tag (N, cleaved yes); made in house; host or cells: E. coli BL21(DE3), pET28a
Protocol: (§1) For each of the OXA enzymes, the nitrocefin steady states were determined so nitrocefin could be used as a reporter in the inhibition assays. Nitrocefin (MilliporeSigma, Burlington, MA) was kept at −20° C. upon purchase and thawed at room temperature and diluted in DMSO for usage. DMSO stocks were aliquoted and kept at −20° C. for only up to 2 weeks after dissolving. To determine the steady state kinetic parameters for nitrocefin hydrolysis, reactions were monitored on a DU-800 spectrophotometer (Beckman Coulter, Brea, CA) at 25° C. Enzyme and substrate samples were diluted using 50 mM HEPES, pH 7.5, 15 mM NaHCO3, and 0.02% Tween-20. Hydrolyzed nitrocefin was tracked at 482 nm. For a single experiment, a series of at least 5 nitrocefin concentrations was tested against the given enzyme. Each substrate concentration was tested in duplicate and initial velocities were averaged (for a given concentration) and fit the Michaelis-Menten equation. The experiment was repeated for rigor. The Km values determined for each enzyme was used to determine the amount of nitrocefin to use in the inhibition assays.
The inhibition activity for compounds were assessed using inhibition assays with nitrocefin as the reporter. A constant concentration of nitrocefin and the given enzyme was used with increasing concentrations of the compound in question. […] The enzymes OXA-24, OXA-48 and OXA-58 were used in their corresponding inhibition experiments at a constant concentration of 0.2 nM, 0.2 nM and 0.1 nM respectively. Compounds were tested at up to 500-4000 μM depending on solubility and absorbance output. The initial velocity of nitrocefin hydrolysis was monitored using a Tecan M200 Infinite Pro plate reader (Tecan, Mannedorf, Switzerland). The velocities at various compound concentrations were fit to the Morrison Tight Binding equation to determine the Ki value for the given fragment with the given OXA enzyme. Ligand efficiency (LE) was calculated using a previously reported equation: LE=1.37 (pKi)/(# non-Hydrogen atoms). […]

[2] = target: T1, OXA-48; experiment: OXA-48 inhibition assay using nitrocefin as reporter; assay type: biochemical; set-up: His-tag (N, cleaved yes); made in house; host or cells: E. coli BL21(DE3), pET28a; conditions: for potency/activity against OXA-48 in words: purified OXA-48, compared with CDD-97 where a derivative
Protocol: Nitrocefin, a chromogenic β-lactam substrate, was used as a reporter in all inhibition assays with the various OXA enzymes and various compounds. Nitrocefin is not stable in aqueous solution long-term. For these assays, nitrocefin stocks were prepared in DMSO, stored at −20° C. and used within 2 weeks of dissolving. To avoid freeze-thawing, fresh stocks were always used. The Km of nitrocefin was determined prior to inhibition assays by performing steady state kinetics. Assays were performed using a DU800 spectrophotometer at room temperature in 50 mM HEPES pH 7.5, 15 mM NaHCO3, and 0.02% tween 20 buffer. Hydrolyzed nitrocefin was detected at 482 nm. For a single experiment, a series of at least 5 nitrocefin concentrations were tested against the given enzyme in duplicate and the initial velocities were measured and fit to the Michaelis-Menten equation. Experiments were repeated twice, and error reported is the standard error of the mean.
Compounds were tested for inhibition of a given OXA enzyme from hydrolyzing nitrocefin using a Tecan plate reader. […] A control with no compound was included in each run. For each compound concentration, the velocity of nitrocefin hydrolysis was determined at 482 nm and fit to the Morrison equation. […] The average Ki of separate experiments, each of which consisted of duplicate runs, is reported and error was quantified as the standard deviation.
The activity of these derivatives was assessed using inhibition assays with purified OXA-48. Compounds were tested for the ability to inhibit OXA-48 from hydrolyzing nitrocefin, a chromogenic β-lactam substrate routinely used in β-lactamase inhibition assays. Nitrocefin contains a conjugated ring system that is readily hydrolyzed and produces a visible color shift from yellow to red upon hydrolysis (O'Callaghan, et al., 1972, Antimicrob. Agents Chemother. 1:283-288). The rate of nitrocefin hydrolysis in the presence of a constant amount of OXA-48 and increasing concentrations of a given compound of interest was monitored at 482 nm. These rates were plotted against compound concentration to determine the inhibition constant (Ki) against OXA-48. […] SPR was performed using 6×-His-OXA-48 enzyme that was amine-coupled on a Ni-NTA Chip. Meropenem, which covalently binds and inhibits OXA-48, was used as a positive control.

[3] = target: T2, OXA-58 (Acinetobacter baumannii, UniProt Q2TR58); experiment: biochemical
T2 construct: His-tag (N, cleaved yes); made in house; host or cells: E. coli BL21 (DE3), pET28a
T2 sequence (Q2TR58 19-280): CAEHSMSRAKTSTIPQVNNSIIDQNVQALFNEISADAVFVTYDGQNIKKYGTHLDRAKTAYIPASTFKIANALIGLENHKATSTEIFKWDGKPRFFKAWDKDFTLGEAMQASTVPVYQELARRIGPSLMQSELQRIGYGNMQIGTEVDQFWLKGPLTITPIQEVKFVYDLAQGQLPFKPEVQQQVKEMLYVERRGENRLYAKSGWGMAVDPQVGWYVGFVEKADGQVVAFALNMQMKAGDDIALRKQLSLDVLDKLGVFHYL
Protocol: as §1, with “Each substrate concentration was tested in duplicate and initial velocities were averaged (for a given concentration) and fit the Michaelis-Menten equation. The experiment was repeated for rigor.” left out
(§2) The inhibition activity for compounds were assessed using inhibition assays with nitrocefin as the reporter. […] Compounds were tested at up to 500-4000 μM depending on solubility and absorbance output. The initial velocity of nitrocefin hydrolysis was monitored using a Tecan M200 Infinite Pro plate reader (Tecan, Mannedorf, Switzerland). […] Ligand efficiency (LE) was calculated using a previously reported equation: LE=1.37 (pKi)/(# non-Hydrogen atoms). […]

[4] = target: T3, OXA-24 (Acinetobacter baumannii, UniProt Q8RLA6); experiment: Example 8 inhibition assay with nitrocefin (aromatic acids): OXA-24; assay type: biochemical
T3 construct: His-tag (N, cleaved yes); made in house; host or cells: E. coli BL21 (DE3), pET28a
T3 sequence (Q8RLA6 entry or part of it): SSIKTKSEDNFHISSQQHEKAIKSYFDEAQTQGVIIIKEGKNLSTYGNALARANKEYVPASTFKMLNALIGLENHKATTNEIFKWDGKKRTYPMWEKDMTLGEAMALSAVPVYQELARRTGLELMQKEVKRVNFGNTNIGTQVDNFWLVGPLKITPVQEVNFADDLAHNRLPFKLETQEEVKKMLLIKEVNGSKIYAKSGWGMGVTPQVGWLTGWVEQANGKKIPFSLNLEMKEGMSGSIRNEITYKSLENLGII
Protocol: as §1, with “Each substrate concentration was tested in duplicate and initial velocities were averaged (for a given concentration) and fit the Michaelis-Menten equation. The experiment was repeated for rigor.” left out
as §2

[5] = target: T1, OXA-48; conditions: non-β-lactam inhibitors; cited from earlier work
[6] = target: T1, OXA-48; experiment: Surface plasmon resonance binding to immobilized 6x-His-OXA-48; set-up: His-tag (N, cleaved yes); made in house; host or cells: E. coli BL21(DE3), pET28a; conditions: SPR, immobilized His-OXA-48, positive control
Protocol: 6×-His-OXA-48 was capture/amine-coupled on a Ni-NTA Chip at a density of ˜5000 RU. Running buffer was 10 mM HEPES pH 7.4, 150 NaCl, 50 mM NaHCO3, 0.005% Tween-20, 2% DMSO. Concentration gradients of each compound were created from 0-15 μM using OneStep Injections in at least triplicates for meropenem and CDD-97.
Synthon-derivatives were created, without DNA tags, based on high OXA-48 enrichment and minimal NTC enrichment. The activity of these derivatives was assessed using inhibition assays with purified OXA-48. Compounds were tested for the ability to inhibit OXA-48 from hydrolyzing nitrocefin, a chromogenic β-lactam substrate routinely used in β-lactamase inhibition assays. Nitrocefin contains a conjugated ring system that is readily hydrolyzed and produces a visible color shift from yellow to red upon hydrolysis (O'Callaghan, et al., 1972, Antimicrob. Agents Chemother. 1:283-288). The rate of nitrocefin hydrolysis in the presence of a constant amount of OXA-48 and increasing concentrations of a given compound of interest was monitored at 482 nm. These rates were plotted against compound concentration to determine the inhibition constant (Ki) against OXA-48. Compounds with promising activity were also assessed for binding using surface plasmon resonance (SPR). SPR was performed using 6×-His-OXA-48 enzyme that was amine-coupled on a Ni-NTA Chip. Meropenem, which covalently binds and inhibits OXA-48, was used as a positive control.

[7] = purified OXA-48, nitrocefin hydrolysis, Morrison fit

T1 sequence (Q6XEC0 23-265, looked up): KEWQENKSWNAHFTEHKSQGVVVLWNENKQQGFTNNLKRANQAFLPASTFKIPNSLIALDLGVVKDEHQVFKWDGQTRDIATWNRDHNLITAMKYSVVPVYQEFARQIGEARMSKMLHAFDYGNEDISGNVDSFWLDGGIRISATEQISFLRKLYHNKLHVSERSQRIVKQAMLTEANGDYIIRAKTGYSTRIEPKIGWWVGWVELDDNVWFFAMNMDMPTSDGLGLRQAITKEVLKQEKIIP

For O=C(O)c1ccc(-c2ccc(C(=O)O)cc2)cc1 [Compound 2.1], the “ligand efficiency (LE) for OXA-48 inhibition” value ([1]; LE=1.37 (pKi)/(# non-Hydrogen atoms)) was 0.36 and the Ki ([1]; OXA-48 0.2 nM, 25 μM nitrocefin) was 17.2 ± 1 µM.
With CCOc1ccccc1N1CCN(c2ncnc(N3CCC(C(N)=O)CC3)n2)CC1 [CDD-553, 1-(4-(4-(2-ethoxyphenyl)piperazin-1-yl)-1,3,5-triazin-2-yl)piperidine-4-carboxamide] the “potency/activity against OXA-48 in words” value [2] was “significant loss of inhibitory activity” and the “Ki for OXA-48 inhibition” value [2, 7] was “No binding”.
In the case of O=C(O)c1ccccc1O [Compound 1.1], the Ki [3] is reported as 379 ± 44 µM, the “inhibition activity against OXA-48 in words” value [1] is reported as “low millimolar activity” and the “inhibition activity against OXA-24 in words” value [4] is reported as “low millimolar activity”.
For O=C(O)C[C@@H]1CC[C@H](NC(=O)Cc2cccs2)B(O)O1 [vaborbactam], the “efficacy against OXA-48 in words” value [5] is given as “ineffective against OXA-48”.
CCOc1ccccc1N1CCN(c2ncnc(N3CCC(S(=O)(=O)O)CC3)n2)CC1 [drawing 46] gave a Ki [2, 7] of 0.26 ± 0.04 µM.
In the case of CCOc1ccccc1N1CCN(c2ncnc(N3CCC(C(=O)O)C(N)C3)n2)CC1 (stereo not drawn) [CDD-825], the Ki [2, 7] is reported as 17 µM and 16.9 µM and the “fold reduction in potency (OXA-48 Ki) compared to CDD-97” value ([2]; relative to CDD-97) is reported as “approximately 30 fold”.
In the case of O=C(NC1CCNCC1)[C@@H]1CC[C@@H]2CN1C(=O)N2OS(=O)(=O)O [relebactam], the “efficacy against OXA-48 in words” value [5] is listed as “ineffective against OXA-48”.
In the case of C[C@@H](O)[C@H]1C(=O)N2C(C(=O)O)=C(S[C@@H]3CN[C@H](C(=O)N(C)C)C3)[C@H](C)[C@H]12 [Meropenem, reference compound], the Kd [6] is reported as 0.4235 ± 0.0002 µM.
In the case of CCOc1ccccc1N1CCN(c2ncnc(N3CC(F)(C(=O)NC)C3)n2)CC1 [CDD-147, 1-(4-(4-(2-ethoxyphenyl)piperazin-1-yl)-1,3,5-triazin-2-yl)-3-fluoro-N-methylazetidine-3-carboxamide], the “potency/activity against OXA-48 in words” value [2] is reported as “potency was low” and the Ki [2, 7] is reported as over 50 µM.
For CCOc1ccccc1N1CCN(c2ncnc(N3CC(F)(C(=O)O)C3)n2)CC1 [CDD-96, 1-(4-(4-(2-ethoxyphenyl)piperazin-1-yl)-1,3,5-triazin-2-yl)-3-fluoroazetidine-3-carboxylic acid], the “potency/activity against OXA-48 in words” value [2] was “potency was low”.
For CCOc1ccccc1N1CCN(c2nc(N)nc(N3CCC(C(=O)O)CC3)n2)CC1 [CDD-616, 1-(4-amino-6-(4-(2-ethoxyphenyl)piperazin-1-yl)-1,3,5-triazin-2-yl)piperidine-4-carboxylic acid], the “potency/activity against OXA-48 in words” value [2] was “does not have a large effect on potency; also recorded: retain potency; also recorded: did not affect potency” and the Ki [2, 7] was 0.52 ± 0.01 µM.
